From US20250311727A1, “SUBSTITUTED 2-AMINOAZINES AND SALTS THEREOF, AND USE THEREOF AS HERBICIDAL ACTIVE SUBSTANCES” (BAYER AKTIENGESELLSCHAFT, priority 2022, published 2025)

Assays:
Type in all cases: in vivo
Amaranthus retroflexus [1] = assay: Post-emergence herbicidal efficacy at 80 g/ha, AMARE; conditions: rated visually after about 3 weeks vs untreated controls, 100% = plants have died
Excerpt: (§1) Unwanted plants/weeds: • ABUTH: Abutilon theophrasti • ALOMY: Alopecurus myosuroides • AMARE: Amaranthus retroflexus • DIGSA: Digitaria sanguinalis • ECHCG: Echinochloa crus-galli • KCHSC: Kochia scoparia • LOLRI: Lolium rigidum • MATIN: Matricaria inodora • POAAN: Poa annua • POLCO: Polygonum convolvulus • SETVI: Setaria viridis • STEME: Stellaria media • VERPE: Veronica persica • VIOTR: Viola tricolor A. Post-Emergence Herbicidal Efficacy at 320 g/ha
(§2) Seeds of monocotyledonous and dicotyledonous weeds and crop plants were placed in sandy loam in plastic or organic planting pots, covered with soil and cultivated in a greenhouse under controlled growth conditions. 2 to 3 weeks after sowing, the test plants were treated at the one-leaf stage. The compounds of the invention, formulated in the form of wettable powders (WP) or as emulsion concentrates (EC), were then sprayed onto the green parts of the plants as aqueous suspension or emulsion with addition of 0.5% additive at a water application rate of 600 l/ha (converted). After the test plants had been kept in the greenhouse under optimum growth conditions for about 3 weeks, the activity of the preparations was rated visually in comparison to untreated controls. For example, 100% activity=the plants have died, 0% activity=like control plants.
(§3) Tables B1 to B11 below show the effects of selected compounds of the general formula (I) according to Table 1 on various harmful plants and an application rate corresponding to 80 g/ha, which were obtained by the experimental procedure mentioned above.

Echinochloa crus-galli [2] = assay: Post-emergence herbicidal efficacy at 80 g/ha, ECHCG; conditions: rated visually after about 3 weeks vs untreated controls, 100% = plants have died
Excerpt: as §1, §2, §3

Veronica persica [3] = assay: Post-emergence herbicidal efficacy at 80 g/ha, VERPE; conditions: rated visually after about 3 weeks vs untreated controls, 100% = plants have died
Excerpt: as §1, §2, §3

Viola tricolor [4] = assay: Post-emergence herbicidal efficacy at 80 g/ha, VIOTR; conditions: rated visually after about 3 weeks vs untreated controls, 100% = plants have died
Excerpt: as §1, §2, §3

Abutilon theophrasti = assay: Pre-emergence herbicide efficacy at 80 g/ha, ABUTH; conditions: scored visually after about 3 weeks vs untreated controls, 100% = plants have died
Excerpt: as §1
(§4) Seeds of monocotyledonous and dicotyledonous weed plants and crop plants were placed in plastic or organic planting pots and covered with soil. The compounds of the invention, formulated in the form of wettable powders (WP) or as emulsion concentrates (EC), were then applied to the surface of the covering soil as aqueous suspension or emulsion with addition of 0.5% additive at a water application rate equivalent to 600 l/ha. After the treatment, the pots were placed in a greenhouse and kept under good growth conditions for the test plants. After about 3 weeks, the efficacy of the preparations was scored visually in comparison with untreated controls as percentages. For example, 100% activity=the plants have died, 0% activity=like control plants.
(§5) Tables D1 to D12 below show the effects of selected compounds of the general formula (I) according to Table 1 on various harmful plants and an application rate corresponding to 80 g/ha, which were obtained by the experimental procedure mentioned above.

Amaranthus retroflexus [5] = assay: Pre-emergence herbicide efficacy at 80 g/ha, AMARE; conditions: scored visually after about 3 weeks vs untreated controls, 100% = plants have died
Excerpt: as §1, §4, §5

Digitaria sanguinalis [6] = assay: Pre-emergence herbicide efficacy at 80 g/ha, DIGSA; conditions: scored visually after about 3 weeks vs untreated controls, 100% = plants have died
Excerpt: as §1, §4, §5

Echinochloa crus-galli [7] = assay: Pre-emergence herbicide efficacy at 80 g/ha, ECHCG; conditions: scored visually after about 3 weeks vs untreated controls, 100% = plants have died
Excerpt: as §1, §4, §5

Kochia scoparia [8] = assay: Pre-emergence herbicide efficacy at 80 g/ha, KCHSC; conditions: scored visually after about 3 weeks vs untreated controls, 100% = plants have died
Excerpt: as §1, §4, §5

Matricaria inodora [9] = assay: Pre-emergence herbicide efficacy at 80 g/ha, MATIN; conditions: scored visually after about 3 weeks vs untreated controls, 100% = plants have died
Excerpt: as §1, §4, §5

Polygonum convolvulus = assay: Pre-emergence herbicide efficacy at 80 g/ha, POLCO; conditions: scored visually after about 3 weeks vs untreated controls, 100% = plants have died
Excerpt: as §1, §4, §5

Veronica persica [10] = assay: Pre-emergence herbicide efficacy at 80 g/ha, VERPE
Excerpt: as §1, §4, §5

Viola tricolor [11] = assay: Pre-emergence herbicide efficacy at 80 g/ha, VIOTR
Excerpt: as §1, §4, §5

Amaranthus retroflexus [12] = assay: Post-emergence herbicidal efficacy at 320 g/ha, AMARE; conditions: rated visually after about 3 weeks vs untreated controls, 100% = plants have died
Excerpt: as §1
(§6) Seeds of mono- and dicotyledonous weed plants were placed in plastic pots in sandy loam soil (doubly sown with in each case one species of mono- or dicotyledonous weed plants per pot), covered with soil and cultivated in a greenhouse under controlled growth conditions. 2 to 3 weeks after sowing, the test plants were treated at the one-leaf stage. The compounds of the invention, formulated in the form of wettable powders (WP) or as emulsion concentrates (EC), were applied to the green parts of the plants as aqueous suspension or emulsion with addition of 0.5% additive at a water application rate equivalent to 600 litres per hectare. After the test plants had been kept in the greenhouse under optimum growth conditions for about 3 weeks, the activity of the preparations was rated visually in comparison to untreated controls.
(§7) For example, 100% activity=the plants have died, 0% activity=like control plants.
(§8) Tables A1 to A10 below show the effects of selected compounds of the general formula (I) according to Table 1 on various harmful plants and at an application rate corresponding to 320 g/ha, which were obtained by the trial procedure specified above.

Kochia scoparia [13] = assay: Post-emergence herbicidal efficacy at 320 g/ha, KCHSC; conditions: rated visually after about 3 weeks vs untreated controls, 100% = plants have died
Excerpt: as §1, §6, §7, §8

Stellaria media [14] = assay: Post-emergence herbicidal efficacy at 320 g/ha, STEME; conditions: rated visually after about 3 weeks vs untreated controls, 100% = plants have died
Excerpt: as §1, §6, §7, §8

Veronica persica [15] = assay: Post-emergence herbicidal efficacy at 320 g/ha, VERPE; conditions: rated visually after about 3 weeks vs untreated controls, 100% = plants have died
Excerpt: as §1, §6, §7, §8

Amaranthus retroflexus [16] = assay: Pre-emergence herbicide efficacy at 320 g/ha, AMARE; conditions: scored visually after about 3 weeks vs untreated controls, 100% = plants have died
Excerpt: as §1
(§9) Seeds of mono- and dicotyledonous weed plants were placed in plastic pots in sandy loam soil (doubly sown with one species each of mono- or dicotyledonous weed plants per pot) and covered with soil. The compounds of the invention, formulated in the form of wettable powders (WP) or as emulsion concentrates (EC), were then applied to the surface of the covering soil as aqueous suspension or emulsion with addition of 0.5% additive at a water application rate of 600 litres per hectare (converted). After the treatment, the pots were placed in a greenhouse and kept under good growth conditions for the test plants. After about 3 weeks, the efficacy of the preparations was scored visually in comparison with untreated controls as percentages.
as §7
(§10) Tables C1 to C12 below show the effects of selected compounds of the general formula (I) according to Table 1 on various harmful plants and at an application rate corresponding to 320 g/ha, which were obtained by the trial procedure specified above.

Digitaria sanguinalis [17] = assay: Pre-emergence herbicide efficacy at 320 g/ha, DIGSA; conditions: scored visually after about 3 weeks vs untreated controls, 100% = plants have died
Excerpt: as §1, §9, §7, §10

Kochia scoparia [18] = assay: Pre-emergence herbicide efficacy at 320 g/ha, KCHSC; conditions: scored visually after about 3 weeks vs untreated controls, 100% = plants have died
Excerpt: as §1, §9, §7, §10

Matricaria inodora [19] = assay: Pre-emergence herbicide efficacy at 320 g/ha, MATIN; conditions: scored visually after about 3 weeks vs untreated controls, 100% = plants have died
Excerpt: as §1, §9, §7, §10

Poa annua = assay: Pre-emergence herbicide efficacy at 320 g/ha, POAAN; conditions: scored visually after about 3 weeks vs untreated controls, 100% = plants have died
Excerpt: as §1, §9, §7, §10

Setaria viridis = assay: Pre-emergence herbicide efficacy at 320 g/ha, SETVI; conditions: scored visually after about 3 weeks vs untreated controls, 100% = plants have died
Excerpt: as §1, §9, §7, §10

Stellaria media [20] = assay: Pre-emergence herbicide efficacy at 320 g/ha, STEME; conditions: scored visually after about 3 weeks vs untreated controls, 100% = plants have died
Excerpt: as §1, §9, §7, §10

Veronica persica [21] = assay: Pre-emergence herbicide efficacy at 320 g/ha, VERPE; conditions: scored visually after about 3 weeks vs untreated controls, 100% = plants have died
Excerpt: as §1, §9, §7, §10

Cc1cnc(Nc2cccc(C#N)c2-n2cc(C(F)(F)F)cn2)nc1 [Example 1-39]
Post-emergence efficacy at 80 g/ha against AMARE in % (Amaranthus retroflexus [1]): 80% | Post-emergence efficacy at 80 g/ha against ECHCG in % (Echinochloa crus-galli [2]): 80% | Post-emergence efficacy at 80 g/ha against VERPE in % (Veronica persica [3]): 90% | Post-emergence efficacy at 80 g/ha against VIOTR in % (Viola tricolor [4]): 80% | Pre-emergence efficacy at 80 g/ha against ABUTH in % (Abutilon theophrasti): 100% | Pre-emergence efficacy at 80 g/ha against AMARE in % (Amaranthus retroflexus [5]): 100% | Pre-emergence efficacy at 80 g/ha against DIGSA in % (Digitaria sanguinalis [6]): 100% | Pre-emergence efficacy at 80 g/ha against ECHCG in % (Echinochloa crus-galli [7]): 100% | Pre-emergence efficacy at 80 g/ha against KCHSC in % (Kochia scoparia [8]): 90% | Pre-emergence efficacy at 80 g/ha against MATIN in % (Matricaria inodora [9]): 100% | Pre-emergence efficacy at 80 g/ha against POLCO in % (Polygonum convolvulus): 90% | Pre-emergence efficacy against VERPE (Veronica persica [10]): 90% | Pre-emergence efficacy against VIOTR (Viola tricolor [11]): 100%

N#Cc1cccc(Nc2ncc(F)cn2)c1-c1ccc(F)c(F)c1 [Example 1-30]
Post-emergence efficacy at 320 g/ha against AMARE in % (Amaranthus retroflexus [12]): 100% | Post-emergence efficacy at 320 g/ha against KCHSC in % (Kochia scoparia [13]): 100% | Post-emergence efficacy at 320 g/ha against STEME in % (Stellaria media [14]): 100% | Post-emergence efficacy at 320 g/ha against VERPE in % (Veronica persica [15]): 100% | Pre-emergence efficacy at 320 g/ha against AMARE in % (Amaranthus retroflexus [16]): 100% | Pre-emergence efficacy at 320 g/ha against DIGSA in % (Digitaria sanguinalis [17]): 100% | Pre-emergence efficacy at 320 g/ha against KCHSC in % (Kochia scoparia [18]): 90% | Pre-emergence efficacy at 320 g/ha against MATIN in % (Matricaria inodora [19]): 90% | Pre-emergence efficacy at 320 g/ha against POAAN in % (Poa annua): 90% | Pre-emergence efficacy at 320 g/ha against SETVI in % (Setaria viridis): 100% | Pre-emergence efficacy at 320 g/ha against STEME in % (Stellaria media [20]): 100% | Pre-emergence efficacy at 320 g/ha against VERPE in % (Veronica persica [21]): 100%
